Measurements published in patent US20150105252A1, “SUBSTITUTED PYRAZOLES AS HERBICIDES” (E I DU PONT DE NEMOURS AND COMPANY, priority 2013, published 2015).

Key:
ragweed = assay: Test E preemergence; assay type: in vivo, Ambrosia elation; conditions: 21 days, scale 0 to 100
Description: (§1) Seeds of plant species selected from bermudagrass (Cynodon dactylon), Surinam grass (Brachiaria decumbens), crabgrass, large (large crabgrass, Digitaria sanguinalis), crabgrass, naked (naked crabgrass, Digitaria nuda), foxtail, green (green foxtail, Setaria viridis), johnsongrass (Sorghum halepense), kochia (Kochia scoparia), morningglory (pitted morningglory, Ipomoea lacunosa), nutsedge, purple (purple nutsedge, Cyperus rotundus), ragweed (common ragweed, Ambrosia elation), mustard, black (black mustard, Brassica nigra), guineagrass (Panicum maximum), dallisgrass (Paspalum dilatatum), barnyardgrass (Echinochloa crus-galli), sandbur (southern sandbur, Cenchrus echinatus), sowthistle (common sowthistle, Sonchus oleraceous), ryegrass, Italian (Italian ryegrass, Lolium multiflorum), signalgrass (broadleaf signalgrass, Brachiaria platyphylla), dayflower, VA (Virginia (VA) dayflower, Commelina virginica), bluegrass (annual bluegrass, Poa annua), quackgrass (Elytrigia repens), mallow (common mallow, Malva sylvestris), buckwheat, wild (wild buckwheat, Polygonum convolvulus), leafy spurge (Euphorbia esula), common chickweed (Stellaria media), wild poinsettia (Euphorbia heterophylla), pigweed, palmer (palmer pigweed, Amaranthus palmeri), and pigweed (redroot pigweed, Amaranthus retroflexus) were planted into a blend of loam soil and sand and treated preemergence with test chemicals formulated in a non-phytotoxic solvent mixture which included a surfactant.
(§2) Treated plants and controls were maintained in a greenhouse for 21 days, after which time all species were compared to controls and visually evaluated. Plant response ratings, summarized in Table E, are based on a scale of 0 to 100 where 0 is no effect and 100 is complete control. A dash (-) response means no test result.

barnyardgrass = assay: Test E preemergence; assay type: in vivo, Echinochloa crus-galli; conditions: 21 days, scale 0 to 100
Description: as §1, §2

signalgrass = assay: Test E preemergence; assay type: in vivo, Brachiaria platyphylla; conditions: 21 days, scale 0 to 100
Description: as §1, §2

mustard, black = assay: Test E preemergence; assay type: in vivo, Brassica nigra; conditions: 21 days, scale 0 to 100
Description: as §1, §2

bermudagrass = assay: Test E preemergence; assay type: in vivo, Cynodon dactylon; conditions: 21 days, scale 0 to 100
Description: as §1, §2

kochia = assay: Test E preemergence; assay type: in vivo, Kochia scoparia; conditions: 21 days, scale 0 to 100
Description: as §1, §2

dayflower, VA = assay: Test E preemergence; assay type: in vivo, Commelina virginica; conditions: 21 days, scale 0 to 100
Description: as §1, §2

morningglory = assay: Test E preemergence; assay type: in vivo, Ipomoea lacunosa; conditions: 21 days, scale 0 to 100
Description: as §1, §2

ryegrass, Italian = assay: Test E preemergence; assay type: in vivo, Lolium multiflorum; conditions: 21 days, scale 0 to 100
Description: as §1, §2

soybean = assay: Test F postemergence; assay type: in vivo, Glycine max; conditions: scale 0 to 100
Description: (§3) Seeds of plant species selected from corn (Zea mays), soybean (Glycine max), velvetleaf (Abutilon theophrasti), lambsquarters (Chenopodium album), wild poinsettia (Euphorbia heterophylla), pigweed, palmer (palmer pigweed, Amaranthus palmeri), common waterhemp (Amaranthus rudis), surinam grass (Brachiaria decumbens), large crabgrass (Digitaria sanguinalis), crabgrass, Brazil (Brazilian crabgrass, Digitaria horizontalis), fall panicum (Panicum dichotomiflorum), giant foxtail (Setaria faberii), green foxtail (Setaria viridis), goosegrass (Eleusine indica), johnsongrass (Sorghum halepense), common ragweed (Ambrosia elation), barnyardgrass (Echinochloa crus-galli), southern sandbur (Cenchrus echinatus), arrowleaf sida (Sida rhombifolia), Italian ryegrass (Lolium multiflorum), dayflower, VA (Virginia (VA) dayflower, Commelina virginica), field bindweed (Convolvulus arvensis), cocklebur (common cocklebur, Xanthium strumarium), morningglory (Ipomoea coccinea), nightshade (eastern black nightshade, Solanum ptycanthum), kochia (Kochia scoparia), yellow nutsedge (Cyperus esculentus), and hairy beggarticks (Bidens pilosa), were planted into a silt loam soil and treated preemergence with test chemicals formulated in a non-phytotoxic solvent mixture which included a surfactant.
(§4) At the same time, plants from these crop and weed species and also horseweed (Canada horseweed, Conyza canadensis), smartweed (ladysthumb smartweed, Polygonum persicaria), waterhemp_RES1, (ALS & Triazine resistant common waterhemp, Amaranthus rudis), and waterhemp_RES2, (ALS & HPPD resistant common waterhemp, Amaranthus rudis) were treated with postemergence applications of test chemicals formulated in the same manner. Plants ranged in height from 2 to 18 cm for postemergence treatments (1- to 4-leaf stage). Treated plants and controls were maintained in a greenhouse for 14 to 21 days, after which time all species were compared to controls and visually evaluated. Plant response ratings, summarized in Table F, are based on a scale of 0 to 100 where 0 is no effect and 100 is complete control. A dash (-) response means no test result.

fall panicum = assay: Test F postemergence; assay type: in vivo, Panicum dichotomiflorum; conditions: scale 0 to 100
Description: as §3, §4

common ragweed = assay: Test F postemergence; assay type: in vivo, Ambrosia elation; conditions: scale 0 to 100
Description: as §3, §4

pigweed, palmer = assay: Test F postemergence; assay type: in vivo, Amaranthus palmeri; conditions: scale 0 to 100
Description: as §3, §4

CCc1cc(C(=O)NC(C)C)nn1Cc1ccnc(C(F)(F)F)c1 [Compound 103]
Plant response rating, Ragweed (ragweed; 16 g ai/ha): 5 | Plant response rating, Ragweed (ragweed; 31 g ai/ha): 98 | Plant response rating, Ragweed (ragweed; 62 g ai/ha): 100 | Plant response rating, Ragweed (ragweed; 125 g ai/ha): 100 | Plant response rating, Ragweed (ragweed; 250 g ai/ha): 100 | Plant response rating, Barnyardgrass (barnyardgrass; 16 g ai/ha): 90 | Plant response rating, Barnyardgrass (barnyardgrass; 31 g ai/ha): 100 | Plant response rating, Barnyardgrass (barnyardgrass; 62 g ai/ha): 100 | Plant response rating, Barnyardgrass (barnyardgrass; 125 g ai/ha): 100 | Plant response rating, Barnyardgrass (barnyardgrass; 250 g ai/ha): 100 | Plant response rating, Signalgrass (signalgrass; 16 g ai/ha): 65 | Plant response rating, Signalgrass (signalgrass; 31 g ai/ha): 80 | Plant response rating, Signalgrass (signalgrass; 62 g ai/ha): 100 | Plant response rating, Signalgrass (signalgrass; 125 g ai/ha): 100 | Plant response rating, Signalgrass (signalgrass; 250 g ai/ha): 100 | Plant response rating, Mustard, Black (mustard, black; 16 g ai/ha): 100 | Plant response rating, Mustard, Black (mustard, black; 31 g ai/ha): 100 | Plant response rating, Mustard, Black (mustard, black; 62 g ai/ha): 100 | Plant response rating, Mustard, Black (mustard, black; 125 g ai/ha): 100 | Plant response rating, Mustard, Black (mustard, black; 250 g ai/ha): 100 | Plant response rating, Bermudagrass (bermudagrass; 16 g ai/ha): 80 | Plant response rating, Bermudagrass (bermudagrass; 31 g ai/ha): 98 | Plant response rating, Bermudagrass (bermudagrass; 62 g ai/ha): 100 | Plant response rating, Bermudagrass (bermudagrass; 125 g ai/ha): 98 | Plant response rating, Bermudagrass (bermudagrass; 250 g ai/ha): 100 | Plant response rating, Kochia (kochia; 16 g ai/ha): 95 | Plant response rating, Kochia (kochia; 31 g ai/ha): 100 | Plant response rating, Kochia (kochia; 62 g ai/ha): 100 | Plant response rating, Kochia (kochia; 125 g ai/ha): 100 | Plant response rating, Kochia (kochia; 250 g ai/ha): 100 | Plant response rating, Dayflower, VA (dayflower, VA; 16 g ai/ha): 80 | Plant response rating, Dayflower, VA (dayflower, VA; 31 g ai/ha): 98 | Plant response rating, Dayflower, VA (dayflower, VA; 62 g ai/ha): 100 | Plant response rating, Dayflower, VA (dayflower, VA; 125 g ai/ha): 100 | Plant response rating, Dayflower, VA (dayflower, VA; 250 g ai/ha): 100 | Plant response rating, Morningglory (morningglory; 16 g ai/ha): 95 | Plant response rating, Morningglory (morningglory; 31 g ai/ha): 100 | Plant response rating, Morningglory (morningglory; 62 g ai/ha): 100 | Plant response rating, Morningglory (morningglory; 125 g ai/ha): 100 | Plant response rating, Morningglory (morningglory; 250 g ai/ha): 100 | Plant response rating, Ryegrass, Italian (ryegrass, Italian; 16 g ai/ha): 50 | Plant response rating, Ryegrass, Italian (ryegrass, Italian; 31 g ai/ha): 98 | Plant response rating, Ryegrass, Italian (ryegrass, Italian; 62 g ai/ha): 100 | Plant response rating, Ryegrass, Italian (ryegrass, Italian; 125 g ai/ha): 100 | Plant response rating, Ryegrass, Italian (ryegrass, Italian; 250 g ai/ha): 100

CCOc1cc(C(=O)NC(C)C)nn1Cc1ccnc(C(F)(F)F)c1 [Compound 188]
Plant response rating, Soybean (soybean; Postemergence, 31 g ai/ha): 98 | Plant response rating, Soybean (soybean; Postemergence, 125 g ai/ha): 95 | Plant response rating, Soybean (soybean; Postemergence, 250 g ai/ha): 98 | Plant response rating, Soybean (soybean; postemergence, 62 g ai/ha): 95 | Plant response rating, Soybean (soybean; postemergence, 500 g ai/ha): 98 | Plant response rating, Fall Panicum (fall panicum; Postemergence, 31 g ai/ha): 20 | Plant response rating, Fall Panicum (fall panicum; Postemergence, 125 g ai/ha): 55 | Plant response rating, Fall Panicum (fall panicum; Postemergence, 250 g ai/ha): 75 | Plant response rating, Fall Panicum (fall panicum; postemergence, 62 g ai/ha): 20 | Plant response rating, Fall Panicum (fall panicum; postemergence, 500 g ai/ha): 90 | Plant response rating, Common Ragweed (common ragweed; Postemergence, 31 g ai/ha): 50 | Plant response rating, Common Ragweed (common ragweed; Postemergence, 125 g ai/ha): 70 | Plant response rating, Common Ragweed (common ragweed; Postemergence, 250 g ai/ha): 85 | Plant response rating, Common Ragweed (common ragweed; postemergence, 62 g ai/ha): 60 | Plant response rating, Common Ragweed (common ragweed; postemergence, 500 g ai/ha): 98 | Plant response rating, Pigweed, Palmer (pigweed, palmer; Postemergence, 31 g ai/ha): 50 | Plant response rating, Pigweed, Palmer (pigweed, palmer; Postemergence, 125 g ai/ha): 50 | Plant response rating, Pigweed, Palmer (pigweed, palmer; Postemergence, 250 g ai/ha): 60 | Plant response rating, Pigweed, Palmer (pigweed, palmer; postemergence, 62 g ai/ha): 50 | Plant response rating, Pigweed, Palmer (pigweed, palmer; postemergence, 500 g ai/ha): 70

CCOc1cc(C(=O)NC2CC2)nn1Cc1ccnc(C(F)(F)F)c1 [Compound 189]
Plant response rating, Ragweed (ragweed; 8 g ai/ha): 95 | Plant response rating, Ragweed (ragweed; 16 g ai/ha): 100 | Plant response rating, Ragweed (ragweed; 31 g ai/ha): 100 | Plant response rating, Ragweed (ragweed; 62 g ai/ha): 100 | Plant response rating, Barnyardgrass (barnyardgrass; 4 g ai/ha): 0 | Plant response rating, Barnyardgrass (barnyardgrass; 8 g ai/ha): 0 | Plant response rating, Barnyardgrass (barnyardgrass; 16 g ai/ha): 35 | Plant response rating, Barnyardgrass (barnyardgrass; 31 g ai/ha): 100 | Plant response rating, Barnyardgrass (barnyardgrass; 62 g ai/ha): 100 | Plant response rating, Signalgrass (signalgrass; 4 g ai/ha): 0 | Plant response rating, Signalgrass (signalgrass; 8 g ai/ha): 30 | Plant response rating, Signalgrass (signalgrass; 16 g ai/ha): 60 | Plant response rating, Signalgrass (signalgrass; 31 g ai/ha): 95 | Plant response rating, Signalgrass (signalgrass; 62 g ai/ha): 100 | Plant response rating, Mustard, Black (mustard, black; 4 g ai/ha): 95 | Plant response rating, Mustard, Black (mustard, black; 8 g ai/ha): 98 | Plant response rating, Mustard, Black (mustard, black; 16 g ai/ha): 100 | Plant response rating, Mustard, Black (mustard, black; 31 g ai/ha): 100 | Plant response rating, Mustard, Black (mustard, black; 62 g ai/ha): 100 | Plant response rating, Bermudagrass (bermudagrass; 4 g ai/ha): 0 | Plant response rating, Bermudagrass (bermudagrass; 8 g ai/ha): 0 | Plant response rating, Bermudagrass (bermudagrass; 16 g ai/ha): 65 | Plant response rating, Bermudagrass (bermudagrass; 31 g ai/ha): 85 | Plant response rating, Bermudagrass (bermudagrass; 62 g ai/ha): 98 | Plant response rating, Kochia (kochia; 4 g ai/ha): 98 | Plant response rating, Kochia (kochia; 8 g ai/ha): 100 | Plant response rating, Kochia (kochia; 16 g ai/ha): 100 | Plant response rating, Kochia (kochia; 31 g ai/ha): 100 | Plant response rating, Kochia (kochia; 62 g ai/ha): 100 | Plant response rating, Dayflower, VA (dayflower, VA; 4 g ai/ha): 0 | Plant response rating, Dayflower, VA (dayflower, VA; 8 g ai/ha): 30 | Plant response rating, Dayflower, VA (dayflower, VA; 16 g ai/ha): 90 | Plant response rating, Dayflower, VA (dayflower, VA; 31 g ai/ha): 100 | Plant response rating, Dayflower, VA (dayflower, VA; 62 g ai/ha): 100 | Plant response rating, Morningglory (morningglory; 4 g ai/ha): 0 | Plant response rating, Morningglory (morningglory; 8 g ai/ha): 30 | Plant response rating, Morningglory (morningglory; 16 g ai/ha): 90 | Plant response rating, Morningglory (morningglory; 31 g ai/ha): 100 | Plant response rating, Morningglory (morningglory; 62 g ai/ha): 100 | Plant response rating, Ryegrass, Italian (ryegrass, Italian; 4 g ai/ha): 0 | Plant response rating, Ryegrass, Italian (ryegrass, Italian; 8 g ai/ha): 0 | Plant response rating, Ryegrass, Italian (ryegrass, Italian; 16 g ai/ha): 20 | Plant response rating, Ryegrass, Italian (ryegrass, Italian; 31 g ai/ha): 50 | Plant response rating, Ryegrass, Italian (ryegrass, Italian; 62 g ai/ha): 100
